Measurements as given in patent US9329185B2, “Sulfonate compounds” (University of Massachusetts, priority 2013, dated 2016).

Columns and labels:
[1] = Cleavage of reductive-labile protecting group by a reducing agent (TLC analysis); format: physicochemical; conditions: 1 mM reducing agent (dithiothreitol or tris(2-carboxyethyl)phosphine), 30 minutes, room temperature, water (pH 7), analyzed by TLC
Experimental: Compound 1 was treated with 1 mM of a reducing agent, i.e., dithiothreitol or tris(2-carboxyethyl)phosphine, for 30 minutes at room temperature in water (pH 7). The solution was analyzed by TLC. A control experiment was conducted by analyzing an aqueous solution containing Compound 1 without being treated with a reducing agent by using TLC.

melting point	cleavage of the protecting group to form a deprotected sulfonate dye [1]	SMILES
220 to 222 °C (dec.)	–	Cc1ccc(C(OS(=O)(=O)CCCN2CCCc3cc4c(cc32)Oc2cc3c(cc2=N4)CCC[N+]=3CCCS(=O)(=O)OC(c2ccc(C)cc2)C(F)(F)F)C(F)(F)F)cc1 (stereo not drawn)
–	rapidly cleaved	CSSc1ccc(C(OS(=O)(=O)c2cccc3c(N(C)C)cccc23)C(F)(F)F)cc1 (stereo not drawn) [Compound 1, 2,2,2-trifluoro-1-(4-(methyldisulfanyl)phenyl)-ethyl 5-(dimethylamino)naphthalene-1-sulfonate]
61 to 63 °C	–	Cc1ccc(C(OS(=O)(=O)CCCCl)C(F)(F)F)cc1 (stereo not drawn) [Compound 22, 2,2,2-trifluoro-1-(p-tolyl)ethyl 3-chloropropane-1-sulfonate]
